Measured values taken from BindingDB's records for patent US11547697 (Millennium Pharmaceuticals, 2023).

Columns and labels:
Assay in all cases: Inhibition Assay of PI3K
[1] = molecular target: Phosphatidylinositol 4,5-bisphosphate 3-kinase catalytic subunit beta isoform (Homo sapiens, UniProt P42338)
[2] = molecular target: T1, Phosphatidylinositol 4,5-bisphosphate 3-kinase catalytic subunit delta isoform (Homo sapiens, UniProt O00329)
T1 sequence (O00329 whole entry): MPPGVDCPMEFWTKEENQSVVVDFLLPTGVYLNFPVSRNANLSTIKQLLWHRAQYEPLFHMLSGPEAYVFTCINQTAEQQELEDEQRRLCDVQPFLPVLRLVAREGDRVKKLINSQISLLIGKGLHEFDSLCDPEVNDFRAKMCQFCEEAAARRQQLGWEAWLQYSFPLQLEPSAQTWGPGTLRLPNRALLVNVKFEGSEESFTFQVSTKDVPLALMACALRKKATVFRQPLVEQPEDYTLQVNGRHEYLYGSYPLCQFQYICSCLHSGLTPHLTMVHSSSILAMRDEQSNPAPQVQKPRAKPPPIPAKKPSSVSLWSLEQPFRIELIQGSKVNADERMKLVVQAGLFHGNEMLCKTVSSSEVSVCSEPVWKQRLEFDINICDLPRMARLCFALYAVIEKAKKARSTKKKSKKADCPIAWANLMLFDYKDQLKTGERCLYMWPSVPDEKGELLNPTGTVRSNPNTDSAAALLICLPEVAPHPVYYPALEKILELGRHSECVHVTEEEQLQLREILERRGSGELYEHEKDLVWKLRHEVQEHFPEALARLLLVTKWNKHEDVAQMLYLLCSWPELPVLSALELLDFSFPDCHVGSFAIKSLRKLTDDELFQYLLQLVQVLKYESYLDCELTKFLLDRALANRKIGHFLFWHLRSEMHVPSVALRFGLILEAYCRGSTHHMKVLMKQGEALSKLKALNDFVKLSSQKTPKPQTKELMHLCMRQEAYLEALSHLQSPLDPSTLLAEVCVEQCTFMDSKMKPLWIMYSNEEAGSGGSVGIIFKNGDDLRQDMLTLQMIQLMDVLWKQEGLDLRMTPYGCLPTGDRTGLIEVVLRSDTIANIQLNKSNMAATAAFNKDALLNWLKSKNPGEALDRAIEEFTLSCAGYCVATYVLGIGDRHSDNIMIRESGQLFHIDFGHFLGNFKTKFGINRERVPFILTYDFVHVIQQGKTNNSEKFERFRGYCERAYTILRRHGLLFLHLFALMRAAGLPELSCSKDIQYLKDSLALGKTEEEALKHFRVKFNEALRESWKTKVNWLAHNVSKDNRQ

[3] = molecular target: Phosphatidylinositol 4,5-bisphosphate 3-kinase catalytic subunit gamma isoform (Homo sapiens, UniProt P48736)

Measured: IC50

Phosphatidylinositol 4,5-bisphosphate 3-kinase catalytic subunit beta isoform, sequence (P42338 whole entry, canonical isoform): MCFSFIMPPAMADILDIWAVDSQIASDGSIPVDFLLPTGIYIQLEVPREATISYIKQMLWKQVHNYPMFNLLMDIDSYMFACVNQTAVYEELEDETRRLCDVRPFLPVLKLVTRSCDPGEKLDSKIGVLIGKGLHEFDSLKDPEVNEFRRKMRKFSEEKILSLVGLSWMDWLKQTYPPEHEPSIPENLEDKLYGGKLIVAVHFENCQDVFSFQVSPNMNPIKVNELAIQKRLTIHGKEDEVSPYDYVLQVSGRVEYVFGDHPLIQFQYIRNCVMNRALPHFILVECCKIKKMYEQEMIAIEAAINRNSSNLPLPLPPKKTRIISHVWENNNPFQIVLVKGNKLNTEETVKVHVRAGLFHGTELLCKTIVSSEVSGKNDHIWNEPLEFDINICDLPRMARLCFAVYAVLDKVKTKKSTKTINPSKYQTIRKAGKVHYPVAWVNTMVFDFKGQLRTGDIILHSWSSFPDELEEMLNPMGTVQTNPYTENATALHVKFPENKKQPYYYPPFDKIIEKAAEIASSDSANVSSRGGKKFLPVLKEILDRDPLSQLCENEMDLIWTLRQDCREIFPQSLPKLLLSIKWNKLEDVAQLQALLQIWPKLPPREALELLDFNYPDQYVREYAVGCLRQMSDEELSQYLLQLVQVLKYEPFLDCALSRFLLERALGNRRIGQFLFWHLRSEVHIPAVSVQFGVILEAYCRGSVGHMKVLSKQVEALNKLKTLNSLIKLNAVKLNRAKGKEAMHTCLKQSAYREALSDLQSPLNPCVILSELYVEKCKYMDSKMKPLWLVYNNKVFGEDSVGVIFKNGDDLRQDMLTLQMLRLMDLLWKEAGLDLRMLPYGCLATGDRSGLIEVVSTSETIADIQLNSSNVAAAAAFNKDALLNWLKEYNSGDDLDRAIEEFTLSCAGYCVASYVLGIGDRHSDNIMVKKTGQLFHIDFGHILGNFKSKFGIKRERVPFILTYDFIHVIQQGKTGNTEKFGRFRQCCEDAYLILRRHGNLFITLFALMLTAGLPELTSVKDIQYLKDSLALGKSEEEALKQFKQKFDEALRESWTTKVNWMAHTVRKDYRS
Phosphatidylinositol 4,5-bisphosphate 3-kinase catalytic subunit gamma isoform, sequence (P48736 whole entry, canonical isoform): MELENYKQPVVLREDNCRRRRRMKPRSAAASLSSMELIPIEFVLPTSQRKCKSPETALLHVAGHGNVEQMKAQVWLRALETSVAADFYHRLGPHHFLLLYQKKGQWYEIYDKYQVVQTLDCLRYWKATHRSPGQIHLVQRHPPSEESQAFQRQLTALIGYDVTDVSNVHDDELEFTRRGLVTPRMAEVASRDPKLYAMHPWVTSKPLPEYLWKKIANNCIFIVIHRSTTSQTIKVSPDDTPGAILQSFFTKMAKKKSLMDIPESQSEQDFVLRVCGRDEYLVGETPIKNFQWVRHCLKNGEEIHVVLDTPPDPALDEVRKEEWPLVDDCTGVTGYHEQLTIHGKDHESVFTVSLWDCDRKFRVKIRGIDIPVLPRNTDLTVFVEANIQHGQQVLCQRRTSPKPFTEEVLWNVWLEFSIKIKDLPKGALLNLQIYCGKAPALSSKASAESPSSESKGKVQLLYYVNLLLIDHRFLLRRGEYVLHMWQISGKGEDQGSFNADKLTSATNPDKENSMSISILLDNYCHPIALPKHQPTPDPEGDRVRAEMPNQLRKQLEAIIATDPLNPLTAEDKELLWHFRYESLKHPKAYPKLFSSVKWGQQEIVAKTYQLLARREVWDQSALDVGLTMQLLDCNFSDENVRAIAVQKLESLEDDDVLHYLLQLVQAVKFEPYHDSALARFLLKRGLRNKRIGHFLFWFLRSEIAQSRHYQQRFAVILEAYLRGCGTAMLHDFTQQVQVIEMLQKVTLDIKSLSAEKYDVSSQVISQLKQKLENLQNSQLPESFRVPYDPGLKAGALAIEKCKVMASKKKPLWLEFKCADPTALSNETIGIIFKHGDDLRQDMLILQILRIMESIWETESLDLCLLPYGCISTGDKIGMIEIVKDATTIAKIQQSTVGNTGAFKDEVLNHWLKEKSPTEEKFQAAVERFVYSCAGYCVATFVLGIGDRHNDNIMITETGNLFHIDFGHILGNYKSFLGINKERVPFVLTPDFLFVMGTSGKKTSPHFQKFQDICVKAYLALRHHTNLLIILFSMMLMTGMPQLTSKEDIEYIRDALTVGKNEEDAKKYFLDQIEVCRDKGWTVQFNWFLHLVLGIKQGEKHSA

Nc1nc2cc(-c3ccc4ncc(N5CCOCC5)n4c3)ccc2o1 [US11547697, Compound 53]
> 10 µM: all assays above

Nc1nc2ccc(-c3ccc4ncn(C5CCOCC5)c(=O)c4c3)cc2o1 [US11547697, Compound 63]
> 10 µM: all assays above

CN1CCN(c2nc3cc(-c4ccc5oc(N)nc5c4)ccc3c(=O)n2C)CC1 [US11547697, Compound 79]
> 10 µM: all assays above

Cn1c(N2CCOCC2)nc2cc(-c3ccc4oc(N)nc4c3)ccc2c1=O [US11547697, Compound 80]
> 10 µM: all assays above

Nc1nc2cc(-c3ccc4ncc(C(=O)N5CCOCC5)cc4c3)ccc2o1 [US11547697, Compound 97]
> 10 µM: all assays above

CN1CCN(C(=O)c2cnc3cnc(-c4ccc5oc(N)nc5c4)cn23)CC1 [US11547697, Compound 123]
> 10 µM: all assays above

CC1CN(C(=O)c2cnc3ccc(-c4ccc5oc(N)nc5c4)cn23)CC(C)N1 (configuration not stated) [US11547697, Compound 142]
> 10 µM: all assays above

Nc1nc2cc(-c3ccc4ncc(-c5ccnc(N6CCOCC6)c5)nc4c3)ccc2o1 [US11547697, Compound 150]
> 10 µM: all assays above

CN1CCN(C(=O)c2cnc3ccc(-c4ccc5oc(N)nc5c4)cc3n2)CC1 [US11547697, Compound 157]
> 10 µM: all assays above

Nc1nc2cc(-c3ccc4ncc(C(=O)N5CCOCC5)nc4c3)ccc2o1 [US11547697, Compound 158]
> 10 µM: all assays above

Nc1nc2cc(-c3ccc4ncc(-c5ccc(N6CCOCC6)nc5)nc4c3)ccc2o1 [US11547697, Compound 167]
> 10 µM: all assays above

Nc1nc2cc(-c3ccc4ncc(-c5ccccc5)nc4c3)ccc2o1 [US11547697, Compound 180]
> 10 µM: all assays above

Cc1ncccc1-c1cnc2ccc(-c3ccc4oc(N)nc4c3)cc2n1 [US11547697, Compound 185]
> 10 µM: all assays above

Nc1nc2cc(-c3ccc4ncn(C5CCC5)c(=O)c4c3)ccc2o1 [US11547697, Compound 205]
> 10 µM: all assays above

Nc1ncc(-c2cnc3ccc(-c4ccc5oc(N)nc5c4)cc3n2)cn1 [US11547697, Compound 210]
> 10 µM: all assays above

CCN(CC)CCn1cnc2ccc(-c3ccc4oc(N)nc4c3)cc2c1=O [US11547697, Compound 224]
> 10 µM: all assays above

Nc1nc2cc(-c3ccc4ncn(C5CCCC5)c(=O)c4c3)ccc2o1 [US11547697, Compound 256]
> 10 µM: all assays above

NC(=O)[C@@H]1CCCN1c1cnc2ccc(-c3ccc4oc(N)nc4c3)cc2n1 [US11547697, Compound 257]
> 10 µM: all assays above

CN1CCN(CCn2cnc3ccc(-c4ccc5oc(N)nc5c4)cc3c2=O)CC1 [US11547697, Compound 280]
> 10 µM: all assays above

Nc1nc2cc(-c3ccc4ncn(CCCN5CCOCC5)c(=O)c4c3)ccc2o1 [US11547697, Compound 290]
> 10 µM: all assays above

CN1CCN(CCCn2cnc3ccc(-c4ccc5oc(N)nc5c4)cc3c2=O)CC1 [US11547697, Compound 291]
> 10 µM: all assays above

CN(C)CCn1cnc2ccc(-c3ccc4oc(N)nc4c3)cc2c1=O [US11547697, Compound 292]
> 10 µM: all assays above

CN(C)C1CCN(C(=O)c2cnc3ccc(-c4ccc5oc(N)nc5c4)cn23)CC1 [US11547697, Compound 304]
> 10 µM: all assays above

Nc1nc2ccc(-c3ccc4nnc(C(=O)N5CCCC5)n4c3)cc2o1 [US11547697, Compound 305]
> 10 µM: all assays above

Cc1nc(NC(=O)N2CCC[C@H]2C(N)=O)sc1-c1ccc2oc(N)nc2c1 [US11547697, Compound 311]
> 10 µM: all assays above

Cc1cc2oc(N)nc2cc1-c1ccc2ncc(N3CC(N4CCOCC4)C3)nc2c1 [US11547697, Compound 353]
> 10 µM: all assays above

Nc1nc2cc(-c3ccc4ncc(C(=O)N5CCOCC5)n4c3)c(Cl)cc2o1 [US11547697, Compound 370]
> 10 µM: all assays above

Cc1c(-c2ccc3oc(N)nc3c2)ccc2ncc(N3CC(N4CCOCC4)C3)nc12 [US11547697, Compound 383]
> 10 µM: all assays above

CCN1CCN(c2cnc3ccc(-c4ccc5oc(N)nc5c4)cc3n2)C(=O)C1 [US11547697, Compound 391]
> 10 µM: all assays above

Nc1nc2cc(-c3ccc4ncc(N5CCN(CC6CC6)CC5=O)nc4c3)ccc2o1 [US11547697, Compound 393]
> 10 µM: all assays above

O=C(c1cnc2ccc(-c3ccc4oc(NC5CC5)nc4c3)cn12)N1CCOCC1 [US11547697, Compound 409]
> 10 µM: all assays above

Nc1ncc(-c2ccc3ncc(C(=O)N4CCOCC4)n3c2)cc1C(F)(F)F [US11547697, Compound 410]
> 10 µM: all assays above

Nc1nc2nc(-c3ccc4ncc(C(=O)N5CCOCC5)n4c3)ccc2o1 [US11547697, Compound 412]
> 10 µM: all assays above

COc1ncc(-c2ccc3ncc(C(=O)N4CCOCC4)n3c2)cc1N [US11547697, Compound 414]
> 10 µM: all assays above

Nc1cc(-c2ccc3ncc(C(=O)N4CCOCC4)n3c2)cnc1Cl [US11547697, Compound 415]
> 10 µM: all assays above

Nc1nc2cc(-c3cc(F)c4ncc(C(=O)N5CCOCC5)n4c3)ccc2o1 [US11547697, Compound 438]
> 10 µM: all assays above

Nc1nc2ccc(-c3cc(F)c4ncc(C(=O)N5CCOCC5)n4c3)cc2o1 [US11547697, Compound 439]
> 10 µM: all assays above

COc1ccc(-c2ccc3ncc(C(=O)N4CCOCC4)n3c2)cc1S(=O)(=O)Nc1ccccc1 [US11547697, Compound 444]
> 10 µM: all assays above

CN1CCN(n2cnc3ccc(-c4ccc5oc(N)nc5c4)cc3c2=O)CC1 [US11547697, Compound 446]
> 10 µM: all assays above
